The values that follow come from ChEMBL document CHEMBL5357057, “Pleosmaranes A-R, Isopimarane and 20-nor Isopimarane Diterpenoids with Anti-inflammatory Activities from the Mangrove Endophytic Fungus Pleosporales sp. HNQQJ-1” (J Nat Prod, 2024).

Data set [1] relates to RAW264.7. Kind of data set: Cytotoxicity against mouse RAW264.7 cells assessed as reduction in cell viability at 5 to 50 uM measured for 24 hrs by MTT assay. The class given is toxicity, cell-based. To be noted: raw264.7, 24 h, dose 5-50 µM. (In general: Formazan colour is commonly taken as a measure of viable cells.)
Data set [2] has as its system RAW264.7. Kind of data set: Anti-inflammatory activity in mouse RAW264.7 cells assessed as inhibition of LPS-induced NO production incubated for 24 hrs by Griess reagent based analysis. The class given is functional, cell-based. To be noted: RAW264.7, 24 h.

What is called IC50 is the concentration at which inhibition is half-maximal. As to `C=C[C@@]1(C)CCc2c(c(O)cc3c2CCCC3(C)C)C1`, the Activity result in the data set with RAW264.7 [1] was “Non-Toxic”. The concentration for half-maximal inhibition (IC50) in the data set on RAW264.7 [2] was over 50 µM.

On to `C=C[C@]1(C)C=C2C(=O)C[C@H]3C(C)(C)CC[C@@H](OC(C)=O)[C@]3(C)[C@@]2(O)CC1`, for which the Activity result with RAW264.7 [1] is listed as “Non-Toxic”. For the same compound, the IC50 with RAW264.7 [2] stood at 33 µM.

Regarding `C=C[C@@]1(C)CCc2c3c(cc(O)c2[C@@H]1OC)C(C)(C)CCC3`, in the data set with RAW264.7 [1], the Activity entry is reported as “Non-Toxic”. In the data set with RAW264.7 [2], the IC50 stood at 30 µM.

As for `C=C[C@@]1(C)CCC2=C([C@H]3O[C@@H](OC)[C@@]24CCCC(C)(C)[C@@H]4[C@H]3OC(C)=O)[C@H]1O`, the Activity entry with RAW264.7 [1] is recorded as “Non-Toxic”. Further, the 50% inhibitory concentration (IC50) in the data set on RAW264.7 [2] came out at 37 µM.

Regarding `C=C[C@@]1(C)CCc2c3c(cc(O)c2[C@@H]1OC)C(C)(C)[C@@H](O)CC3`, in the data set with RAW264.7 [1], the Activity entry was “Non-Toxic”. Moreover, in the data set on RAW264.7 [2], the IC50 worked out at 35 µM.

For the compound `C=C[C@@]1(C)CCc2c3c(cc(O)c2[C@@H]1O)[C@@](C)(CO)CCC3`, the Activity result with RAW264.7 [1] is reported as “Non-Toxic”. The IC50 with RAW264.7 [2] was over 50 µM.

Turning to `C=C[C@]1(C)C=C2[C@@H](O)C[C@H]3C(C)(C)CC[C@@H](OC(C)=O)[C@]3(C)[C@@]2(O)CC1`, the Activity entry in the data set with RAW264.7 [1] is “Non-Toxic”. In addition, the IC50 in the data set on RAW264.7 [2] was 25 µM.

Take `C=C[C@]1(C)C=C2[C@@H](O)[C@H](O)[C@H]3C(C)(C)CC[C@@H](OC(C)=O)[C@]3(C)[C@@]2(O)CC1`: in the data set with RAW264.7 [1], the Activity entry is recorded as “Non-Toxic”. Moreover, the IC50 with RAW264.7 [2] was determined as 35 µM.

As to `C=C[C@@]1(C)CCc2c3c(cc(O)c2[C@H]1O)[C@](C)(CO)CCC3`, the Activity entry with RAW264.7 [1] was “Non-Toxic”. In the data set on RAW264.7 [2], the IC50 was over 50 µM.

As to `C=C[C@]1(C)C=C2[C@H]3O[C@@H](O)[C@@]4(CCCC(C)(C)[C@@H]4[C@H]3OC(C)=O)[C@@]2(O)CC1`, the Activity result with RAW264.7 [1] was “Non-Toxic”. In addition, the IC50 with RAW264.7 [2] is 33 µM.

For the compound `C=C[C@@]1(C)CCc2c3c(cc(O)c2[C@H]1OC)C(C)(C)CCC3`, the Activity result in the data set with RAW264.7 [1] is “Non-Toxic”. The IC50 in the data set with RAW264.7 [2] is 37 µM.

As for `C=C[C@@]1(C)CCC2=C(C1)C(=O)C[C@H]1C(C)(C)[C@H](O)C[C@@H](O)[C@]21C`, the Activity result in the data set with RAW264.7 [1] is reported as “Non-Toxic”. Moreover, the IC50 in the data set on RAW264.7 [2] is over 50 µM.

Turning to `C=C[C@]1(C)C=C2[C@@H](OC(C)=O)[C@H]3OC(=O)[C@@]4(CCCC(C)(C)[C@H]34)[C@@]2(O)CC1`, the Activity result in the data set on RAW264.7 [1] is listed as “Non-Toxic”. Further, the IC50 in the data set on RAW264.7 [2] was 35 µM.

For `C=C[C@@]1(C)C[C@H](O)c2c3c(cc(O)c2[C@H]1OC)C(C)(C)CCC3`, in the data set with RAW264.7 [1], the Activity result is given as “Non-Toxic”. Further, the IC50 in the data set on RAW264.7 [2] was 38 µM.

On to `C=C[C@@]1(C)CC[C@@]2(O)C(=C[C@H](O)[C@H]3C(C)(C)CC[C@@H](OC(C)=O)[C@@]32C)[C@H]1O`, for which the Activity entry in the data set on RAW264.7 [1] is listed as “Non-Toxic”. In addition, the IC50 with RAW264.7 [2] is over 50 µM.

In the case of `C=C[C@@]1(C)CCc2c3c(cc(O)c2[C@H]1O)C(C)(C)CCC3`, in the data set on RAW264.7 [1], the Activity result was “Non-Toxic”. Further, the IC50 in the data set on RAW264.7 [2] is over 50 µM.

As to `C=C[C@]1(C)C=C2[C@](O)(CC1)[C@@]13CCCC(C)(C)[C@@H]1[C@@H](OC(C)=O)[C@]2(O)OC3`, the Activity entry in the data set on RAW264.7 [1] is recorded as “Non-Toxic”. In the data set with RAW264.7 [2], the IC50 amounted to 30 µM.

In the case of `C=C[C@@]1(C)CCc2c3c(cc(O)c2C1=O)[C@](C)(CO)CCC3`, the Activity result in the data set on RAW264.7 [1] was “Non-Toxic”. Further, the IC50 with RAW264.7 [2] was 19 µM.

Turning to `C=C[C@@]1(C)CCc2c3c(cc(O)c2[C@H]1OC)[C@](C)(CO)CCC3`, the Activity entry in the data set on RAW264.7 [1] is “Non-Toxic”. Further, the IC50 with RAW264.7 [2] came to 42 µM.

As for `C=C[C@@]1(C)CCc2c3c(cc(O)c2[C@@H]1OC)[C@@](C)(CO)CCC3`, the Activity entry in the data set with RAW264.7 [1] is listed as “Non-Toxic”. Besides, the IC50 with RAW264.7 [2] worked out at 42 µM.

As for `C=C[C@@]1(C)CCc2c3c(cc(O)c2[C@@H]1O)C(C)(C)CCC3`, in the data set with RAW264.7 [1], the Activity entry is recorded as “Non-Toxic”. Also, in the data set with RAW264.7 [2], the IC50 worked out at 40 µM.

For `C=C[C@]1(C)C=C2C(=O)C[C@H]3C(C)(C)CCC[C@]3(C(=O)O)[C@@]2(O)CC1` [SPHAEROPSIDIN C], the Activity result in the data set on RAW264.7 [1] is recorded as “Non-Toxic”. For the same compound, the half-maximal inhibitory concentration (IC50) in the data set on RAW264.7 [2] turned out to be 31 µM.
